From patent publication US20220187282A1, “CARDIOMYOCYTE PROLIFERATION” (The Council of the Queensland Institute of Medical Research, priority 2019, published 2022)
Like-named read-outs stand apart in the source and are kept apart here.

Key:
Type in all cases: biochemical
kinases [1] = molecular target: kinases (Homo sapiens, UniProt O00750); details: PIK3C2B FRET-Adapta SP; Test Conc(μM):ATP Conc(μM) 1:10
kinases [2] = molecular target: kinases (Homo sapiens, UniProt O14976); details: GAK FRET-Lantha SP; Test Conc(μM) 1
kinases [3] = molecular target: kinases (Homo sapiens, UniProt O15075); details: DCAMKL1 (DCLK1) FRET-Z-Lyte SP
Sequence of kinases (Homo sapiens, UniProt O15075) (O15075 whole entry): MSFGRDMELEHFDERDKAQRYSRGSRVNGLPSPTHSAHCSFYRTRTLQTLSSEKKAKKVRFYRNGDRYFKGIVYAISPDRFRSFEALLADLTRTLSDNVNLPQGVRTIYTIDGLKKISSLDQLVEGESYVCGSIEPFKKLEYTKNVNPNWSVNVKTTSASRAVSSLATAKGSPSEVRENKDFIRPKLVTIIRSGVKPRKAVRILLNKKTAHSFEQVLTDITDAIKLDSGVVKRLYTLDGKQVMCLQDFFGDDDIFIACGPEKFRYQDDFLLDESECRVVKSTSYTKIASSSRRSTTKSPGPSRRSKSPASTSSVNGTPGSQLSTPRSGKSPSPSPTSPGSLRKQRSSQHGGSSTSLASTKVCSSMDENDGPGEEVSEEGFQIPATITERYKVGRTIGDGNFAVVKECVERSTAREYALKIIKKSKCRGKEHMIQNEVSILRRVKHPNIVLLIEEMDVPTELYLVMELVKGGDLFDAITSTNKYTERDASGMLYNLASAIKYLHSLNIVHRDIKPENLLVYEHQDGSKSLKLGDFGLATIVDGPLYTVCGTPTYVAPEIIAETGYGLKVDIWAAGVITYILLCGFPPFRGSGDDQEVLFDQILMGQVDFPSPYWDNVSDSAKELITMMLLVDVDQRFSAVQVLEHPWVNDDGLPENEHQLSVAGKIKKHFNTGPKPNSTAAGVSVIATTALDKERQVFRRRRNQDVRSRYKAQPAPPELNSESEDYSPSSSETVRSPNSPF

kinases [4] = molecular target: kinases (Homo sapiens, UniProt O15111); details: CHUK(IKK alpha) FRET-Adapta SP; Test Conc(μM):ATP Conc(μM) 1:10
Sequence of kinases (Homo sapiens, UniProt O15111) (O15111 whole entry): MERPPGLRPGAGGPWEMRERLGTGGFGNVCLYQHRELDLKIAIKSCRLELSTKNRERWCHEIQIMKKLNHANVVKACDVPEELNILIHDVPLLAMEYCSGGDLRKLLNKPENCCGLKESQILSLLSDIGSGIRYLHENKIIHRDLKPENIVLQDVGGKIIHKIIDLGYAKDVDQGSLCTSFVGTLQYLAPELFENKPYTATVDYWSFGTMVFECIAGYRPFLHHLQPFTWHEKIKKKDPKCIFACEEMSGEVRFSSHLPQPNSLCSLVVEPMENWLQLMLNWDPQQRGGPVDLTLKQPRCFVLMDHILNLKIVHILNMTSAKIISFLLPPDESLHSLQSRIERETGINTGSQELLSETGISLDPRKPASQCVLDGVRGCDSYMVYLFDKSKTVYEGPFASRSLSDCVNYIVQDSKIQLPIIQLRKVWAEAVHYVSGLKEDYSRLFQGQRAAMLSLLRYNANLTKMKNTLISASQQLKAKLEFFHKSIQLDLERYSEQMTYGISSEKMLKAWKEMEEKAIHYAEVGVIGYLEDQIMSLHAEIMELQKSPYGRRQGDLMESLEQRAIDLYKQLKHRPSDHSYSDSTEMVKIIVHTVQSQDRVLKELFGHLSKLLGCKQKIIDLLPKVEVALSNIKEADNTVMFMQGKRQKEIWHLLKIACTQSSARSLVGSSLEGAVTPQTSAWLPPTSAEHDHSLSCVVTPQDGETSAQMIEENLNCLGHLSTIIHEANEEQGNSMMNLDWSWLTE

kinases [5] = molecular target: kinases (Homo sapiens, UniProt O15264); details: MAPK13 (p38 delta) Z-Lyte SP; Test Conc(μM):ATP Conc(μM) 1:10
kinases [6] = molecular target: kinases (Homo sapiens, UniProt O60674)
Sequence of kinases (Homo sapiens, UniProt O60674) (O60674 whole entry): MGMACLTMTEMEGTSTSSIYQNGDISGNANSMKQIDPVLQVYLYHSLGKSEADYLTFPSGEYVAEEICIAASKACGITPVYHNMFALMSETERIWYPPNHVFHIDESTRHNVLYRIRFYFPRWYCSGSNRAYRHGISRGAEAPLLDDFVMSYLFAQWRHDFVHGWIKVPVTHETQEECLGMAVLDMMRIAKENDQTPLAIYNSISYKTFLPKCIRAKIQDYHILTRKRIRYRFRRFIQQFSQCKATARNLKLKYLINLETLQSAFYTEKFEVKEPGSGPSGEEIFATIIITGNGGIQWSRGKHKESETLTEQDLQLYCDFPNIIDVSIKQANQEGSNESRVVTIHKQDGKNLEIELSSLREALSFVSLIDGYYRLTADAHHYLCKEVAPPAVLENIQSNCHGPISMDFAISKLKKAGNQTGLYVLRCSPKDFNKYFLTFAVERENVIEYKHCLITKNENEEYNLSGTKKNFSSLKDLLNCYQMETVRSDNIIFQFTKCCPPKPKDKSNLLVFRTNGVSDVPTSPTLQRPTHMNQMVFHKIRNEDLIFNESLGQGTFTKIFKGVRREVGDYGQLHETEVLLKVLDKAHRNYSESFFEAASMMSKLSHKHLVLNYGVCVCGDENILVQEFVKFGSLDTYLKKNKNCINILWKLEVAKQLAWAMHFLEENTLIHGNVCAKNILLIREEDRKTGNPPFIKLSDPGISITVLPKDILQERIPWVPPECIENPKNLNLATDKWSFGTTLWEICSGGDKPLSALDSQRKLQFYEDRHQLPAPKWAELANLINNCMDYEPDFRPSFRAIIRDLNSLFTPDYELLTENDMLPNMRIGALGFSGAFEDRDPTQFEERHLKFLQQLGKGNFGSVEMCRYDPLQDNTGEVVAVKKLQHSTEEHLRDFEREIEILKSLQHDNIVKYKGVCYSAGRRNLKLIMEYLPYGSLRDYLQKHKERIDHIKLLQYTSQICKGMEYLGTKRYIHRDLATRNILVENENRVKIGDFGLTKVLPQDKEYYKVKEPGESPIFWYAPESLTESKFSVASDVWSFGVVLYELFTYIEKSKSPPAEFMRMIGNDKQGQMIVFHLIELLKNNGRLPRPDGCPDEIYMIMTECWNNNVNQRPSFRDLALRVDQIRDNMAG

kinases [7] = molecular target: kinases (Homo sapiens, UniProt O75385); details: ULK1 FRET-Lantha SP; Test Conc(μM) 1
Sequence of kinases (Homo sapiens, UniProt O75385) (O75385 whole entry): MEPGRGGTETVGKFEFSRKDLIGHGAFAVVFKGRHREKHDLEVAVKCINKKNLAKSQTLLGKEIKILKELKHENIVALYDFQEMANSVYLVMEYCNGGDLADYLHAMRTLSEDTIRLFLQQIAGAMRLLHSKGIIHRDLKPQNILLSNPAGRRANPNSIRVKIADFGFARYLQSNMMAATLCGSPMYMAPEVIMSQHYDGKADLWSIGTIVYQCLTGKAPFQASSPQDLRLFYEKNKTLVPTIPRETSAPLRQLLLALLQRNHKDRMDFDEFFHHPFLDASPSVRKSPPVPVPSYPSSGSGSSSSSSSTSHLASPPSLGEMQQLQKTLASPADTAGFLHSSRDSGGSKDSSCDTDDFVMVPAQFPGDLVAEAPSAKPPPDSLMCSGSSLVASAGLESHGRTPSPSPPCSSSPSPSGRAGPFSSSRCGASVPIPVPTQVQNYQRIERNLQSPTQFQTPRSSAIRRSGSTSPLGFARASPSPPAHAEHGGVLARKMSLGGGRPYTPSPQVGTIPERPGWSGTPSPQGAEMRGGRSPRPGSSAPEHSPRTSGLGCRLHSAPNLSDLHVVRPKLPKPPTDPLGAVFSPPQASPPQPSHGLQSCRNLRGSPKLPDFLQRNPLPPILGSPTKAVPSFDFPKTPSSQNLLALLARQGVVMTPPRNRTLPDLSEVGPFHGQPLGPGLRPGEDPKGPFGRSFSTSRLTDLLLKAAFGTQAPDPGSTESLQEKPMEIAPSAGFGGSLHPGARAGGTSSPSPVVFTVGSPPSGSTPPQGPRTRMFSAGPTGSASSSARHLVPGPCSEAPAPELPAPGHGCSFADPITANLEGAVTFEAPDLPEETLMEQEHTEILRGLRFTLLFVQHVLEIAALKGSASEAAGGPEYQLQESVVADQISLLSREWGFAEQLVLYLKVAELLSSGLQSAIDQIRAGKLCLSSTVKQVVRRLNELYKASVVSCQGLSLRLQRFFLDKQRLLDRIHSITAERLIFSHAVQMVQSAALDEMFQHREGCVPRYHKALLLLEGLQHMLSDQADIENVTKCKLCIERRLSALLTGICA

kinases [8] = molecular target: kinases (Homo sapiens, UniProt O94806); details: PRKCN (PKD3) FRET-Z-Lyte SP; Test Conc(μM):ATP Conc(μM) 1:25
kinases [9] = molecular target: kinases (Homo sapiens, UniProt P05771); details: PRKCB1 (PKC beta I) Z-Lyte SP; Test Conc(μM):ATP Conc(μM) 1:200
kinases [10] = molecular target: kinases (Homo sapiens, UniProt P17948); details: FLT1 (VEGFR1) *Mn* Z-Lyte SP; Test Conc(μM):ATP Conc(μM) 1:150
kinases [11] = molecular target: kinases (Homo sapiens, UniProt P19525); details: EIF2AK2 (PKR) FRET-Lantha SP; Test Conc(μM) 1
kinases [12] = molecular target: kinases (Homo sapiens, UniProt P41279); details: MAP3K8 (COT) Cascade Z-Lyte SP; Test Conc(μM):ATP Conc(μM) 1:100
Sequence of kinases (Homo sapiens, UniProt P41279) (P41279 whole entry): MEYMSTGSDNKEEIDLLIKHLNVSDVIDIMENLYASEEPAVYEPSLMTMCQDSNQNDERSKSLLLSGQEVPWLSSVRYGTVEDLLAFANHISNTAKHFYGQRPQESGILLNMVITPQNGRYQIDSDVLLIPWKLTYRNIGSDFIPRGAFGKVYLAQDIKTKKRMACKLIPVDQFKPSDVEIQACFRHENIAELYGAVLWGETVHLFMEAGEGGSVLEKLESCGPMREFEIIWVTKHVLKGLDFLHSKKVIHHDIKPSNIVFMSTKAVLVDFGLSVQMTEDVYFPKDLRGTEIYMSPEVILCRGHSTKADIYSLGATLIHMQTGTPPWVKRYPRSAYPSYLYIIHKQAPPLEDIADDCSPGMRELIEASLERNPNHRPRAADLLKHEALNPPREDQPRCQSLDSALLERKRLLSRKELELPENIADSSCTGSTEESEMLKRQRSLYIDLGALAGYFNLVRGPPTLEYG

kinases [13] = molecular target: kinases (Homo sapiens, UniProt P43405); details: SYK FRET-Z-Lyte SP; Test Conc(μM):ATP Conc(μM) 1:25
kinases [14] = molecular target: kinases (Homo sapiens, UniProt P49840); details: GSK3A FRET-Z-Lyte SP; Test Conc(μM):ATP Conc(μM) 1:10
kinases [15] = molecular target: kinases (Homo sapiens, UniProt Q00534); details: CDK6 Cyclin D1 FRET-Adapta SP; Test Conc(μM):ATP Conc(μM) 1:10
kinases [16] = molecular target: kinases (Homo sapiens, UniProt Q14012); details: CAMK1 (CaMK1) FRET-Adapta SP; Test Conc(μM):ATP Conc(μM) 1:10
kinases [17] = molecular target: kinases (Homo sapiens, UniProt Q14289); details: PTK2B (FAK2) *Mn* Z-Lyte SP; Test Conc(μM):ATP Conc(μM) 1:5
kinases [18] = molecular target: kinases (Homo sapiens, UniProt Q86UX6); details: STK32C (YANK3) FRET-Lantha SP; Test Conc(μM) 1
kinases [19] = molecular target: kinases (Homo sapiens, UniProt Q8IU85); details: CAMK1D FRET-Z-Lyte SP; Test Conc(μM):ATP Conc(μM) 1:25
Sequence of kinases (Homo sapiens, UniProt Q8IU85) (Q8IU85 whole entry): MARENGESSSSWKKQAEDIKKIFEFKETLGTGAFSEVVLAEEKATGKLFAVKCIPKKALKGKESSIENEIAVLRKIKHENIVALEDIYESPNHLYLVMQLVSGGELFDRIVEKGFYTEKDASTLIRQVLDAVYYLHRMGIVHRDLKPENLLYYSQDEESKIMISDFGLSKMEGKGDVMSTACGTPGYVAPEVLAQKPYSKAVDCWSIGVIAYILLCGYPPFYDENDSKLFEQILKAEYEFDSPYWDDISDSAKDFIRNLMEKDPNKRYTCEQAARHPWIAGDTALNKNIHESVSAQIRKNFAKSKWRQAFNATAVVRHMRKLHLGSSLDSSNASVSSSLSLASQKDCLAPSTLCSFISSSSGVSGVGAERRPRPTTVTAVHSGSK

kinases [20] = molecular target: kinases (Homo sapiens, UniProt Q8NEV4); details: MYO3A (MYO3 alpha) Lantha SP; Test Conc(μM) 1
kinases [21] = molecular target: kinases (Homo sapiens, UniProt Q92918); details: MAP4K1 (HPK1) FRET-Lantha SP; Test Conc(μM) 1
kinases [22] = molecular target: kinases (Homo sapiens, UniProt Q96PF2); details: STK22B (TSSK2) FRET-Z-Lyte SP; Test Conc(μM):ATP Conc(μM) 1:5
kinases [23] = molecular target: kinases (Homo sapiens, UniProt Q99683); details: MAP3K5 (ASK1) FRET-Lantha SP; Test Conc(μM) 1
kinases [24] = molecular target: kinases (Homo sapiens, UniProt Q99755); details: PIP5K1A FRET-Adapta SP; Test Conc(μM):ATP Conc(μM) 1:10
kinases [25] = molecular target: kinases (Homo sapiens, UniProt Q9H422); details: HIPK3 (YAK1) FRET-Z-Lyte SP; Test Conc(μM):ATP Conc(μM) 1:25
kinases [26] = molecular target: kinases (Homo sapiens, UniProt Q9HAZ1); details: CLK4 FRET-Lantha SP; Test Conc(μM) 1
kinases [27] = molecular target: kinases (Homo sapiens, UniProt Q9UBS0); details: RPS6KB2 FRET-Z-Lyte SP; Test Conc(μM):ATP Conc(μM) 1:50
Sequence of kinases (Homo sapiens, UniProt Q9UBS0) (Q9UBS0 whole entry): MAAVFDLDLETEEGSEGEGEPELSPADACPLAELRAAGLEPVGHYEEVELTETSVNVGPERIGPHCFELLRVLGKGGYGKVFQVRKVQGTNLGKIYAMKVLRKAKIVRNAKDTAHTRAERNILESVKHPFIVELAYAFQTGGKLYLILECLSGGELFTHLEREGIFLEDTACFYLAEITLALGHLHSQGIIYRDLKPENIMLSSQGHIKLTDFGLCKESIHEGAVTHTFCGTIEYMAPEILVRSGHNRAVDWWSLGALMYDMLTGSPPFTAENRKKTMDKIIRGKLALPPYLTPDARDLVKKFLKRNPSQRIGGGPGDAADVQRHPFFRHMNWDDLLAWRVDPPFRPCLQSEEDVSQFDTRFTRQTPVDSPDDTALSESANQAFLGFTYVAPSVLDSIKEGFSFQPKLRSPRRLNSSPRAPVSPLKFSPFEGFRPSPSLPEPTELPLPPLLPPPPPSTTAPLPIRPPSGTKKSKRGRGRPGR

kinases [28] = molecular target: kinases (Homo sapiens, UniProt Q9UIK4); details: DAPK2 FRET-Lantha SP; Test Conc(μM) 1
[29] = JAK2 FRET-Z-Lyte SP, Test Conc(μM):ATP Conc(μM) 1:25

Row | Compound | Mean Inhib (%) (kinases [1]) | Mean Inhib (%) (kinases [2]) | Mean Inhib (%) (kinases [4]) | Mean Inhib (%) (kinases [5]) | Mean Inhib (%) (kinases [6]; [29]) | Mean Inhib (%) (kinases [7]) | Mean Inhib (%) (kinases [8]) | Mean Inhib (%) (kinases [9]) | Mean Inhib (%) (kinases [10]) | Mean Inhib (%) (kinases [11]) | Mean Inhib (%) (kinases [12]) | Mean Inhib (%) (kinases [13]) | Mean Inhib (%) (kinases [14]) | Mean Inhib (%) (kinases [15]) | Mean Inhib (%) (kinases [16]) | Mean Inhib (%) (kinases [17]) | Mean Inhib (%) (kinases [18]) | Mean Inhib (%) (kinases [19]) | Mean Inhib (%) (kinases [20]) | Mean Inhib (%) (kinases [21]) | also measured
1 | Cc1ccc(NC(=O)c2ccnc(N3CCOCC3)c2)cc1Nc1ccnc(N2CC(C)OC(C)C2)n1 (stereo not shown) [compound 3] | 3.7% | 29.0% | −6.9% | 4.7% | −7.7% | 1.6% | 9.0% | 27.7% | 11.5% | 2.8% | 6.1% | −3.9% | 9.4% | −1.8% | −9.9% | 8.5% | −1.0% | 0.0% | 10.8% | −1.6% | Mean Inhib (%) (kinases [3]; Test Conc(μM):ATP Conc(μM) 1:300): 31.0%; Mean Inhib (%) (kinases [6]; JAK2 JH1 JH2 FRET-Z-Lyte SP, ATP Conc(μM):Test Conc(μM) 1:25): −0.1%; Mean Inhib (%) (kinases [22]): 1.2%; Mean Inhib (%) (kinases [23]): 0.2%; Mean Inhib (%) (kinases [24]): −2.9%; Mean Inhib (%) (kinases [25]): 0.6%; Mean Inhib (%) (kinases [26]): 6.4%; Mean Inhib (%) (kinases [27]): 7.8%; Mean Inhib (%) (kinases [28]): −2.5%
2 | Cc1cc(Oc2ccnc(Nc3ccc(S(N)(=O)=O)cc3)c2)c(-c2ccccn2)nc1C [compound 65] | −0.9% | 39.3% | −6.2% | 3.7% | 4.7% | 0.1% | 12.4% | −7.3% | 2.7% | 3.6% | 21.2% | 2.5% | 3.2% | 6.7% | 7.3% | −2.5% | 7.8% | −7.6% | 1.6% | 11.3% | Mean Inhib (%) (kinases [3]; Test Conc(μM):ATP Conc(μM) 0.25): 11.8%; Mean Inhib (%) (kinases [6]; JAK2 JH1 JH2 FRET-Z-Lyte SP, ATP Conc(μM):Test Conc(μM) 1:50): −3.9%; Mean Inhib (%) (kinases [22]): −0.9%; Mean Inhib (%) (kinases [23]): 6.1%; Mean Inhib (%) (kinases [24]): 2.4%; Mean Inhib (%) (kinases [25]): −0.3%; Mean Inhib (%) (kinases [26]): 0.4%; Mean Inhib (%) (kinases [27]): 2.1%; Mean Inhib (%) (kinases [28]): −0.8%
